# Source: patent US10195144B2, “Methods of treating inflammatory and autoimmune diseases and disorders” (Yale University, priority 2012, dated 2019)
# How the values were obtained:
# [1] = test system: NZB/W F1 lupus-prone mice; assay: in vivo comparison of nanolipogels and PLGA particles, survival; details: 0.625 mg MPA per kg
# Source text: The efficacy of nanolipogels was compared to PLGA using both in vivo and in vitro evaluation. […] Survival time was monitored to determine and compare in vivo efficacy between particles.
# CD4 T cells = assay: CD4 T cell proliferation after particle incubation, wash and anti-CD3/anti-CD28 stimulation; type: cell-based; details: brief incubation, wash, 4 days stimulation
# Method: CD4 T cells were briefly incubated with particles, washed to remove any unbound particles, and then stimulated for 4 days with anti-CD3 and anti-CD28 antibodies to promote proliferation.
# female NZB/W F1 mice = assay: survival of lupus-prone mice under life-long weekly therapy; type: in vivo
# Method: NZB/W F1 mice develop autoimmunity that resembles human lupus nephritis, with development of glomerulonephritis, anemia, and the generation of autoantibodies specific for double-stranded DNA and other self-antigens. NZB/W F1 mice were administered a life-long, single weekly intraperitoneal injection of nanoparticle therapy beginning at 18 weeks of age, before the onset of proteinuria. The single, weekly MPA dosage in nanoparticles was 0.625 mg of MP A per kg animal (mpk). Control mice received only saline buffer.
# Animal studies using female NZB/W F1 mice (The Jackson Laboratory, stock #100008) were performed with the approval of the Yale University Institutional Animal Care and Use Committee. Beginning at 18 weeks of age, NZB/W F1 mice were administered a weekly intraperitoneal injection of nanoparticles or mycophenolic acid in buffer for the entirety of their life. An intraperitoneal injection was used, as opposed to intravenous tail vein injection, to prevent long-term tail vein damage from chronic injections. Mice urine was collected by bladder compression, and blood was collected via retroorbital bleed with isoflurane anesthesia. Mouse survival was continued until symptoms of cachexia (more than 5-10% body weight loss), lethargy, or poor condition warranted humane euthanization.
structure (smiles),measurement,setting,value
"COc1c(C)c2c(c(O)c1C/C=C(\C)CCC(=O)O)C(=O)OC2 [MPA, mycophenolic acid]",increase of survival time of treated mice,[1],not
same,CD4 T cell proliferation and cytokine production,CD4 T cells,normal proliferation and cytokine production
same,effect on survival,female NZB/W F1 mice; 0.625 mpk soluble in buffer,no effect on extending survival
same,effect on survival,"female NZB/W F1 mice; 10 mpk (16-fold) in buffer, listed as MPA administered in buffer",could not achieve the same therapeutic effect
same,effect on survival,"female NZB/W F1 mice; 10 mpk (16-fold) in buffer, listed as free MPA",no improvement in survival
